From patent US9790229B2, “Bruton's tyrosine kinase inhibitors” (priority 2009, dated 2017)

molecular target: BTK (Homo sapiens (Human), UniProt Q06187); experiment: In vitro BTK kinase assay: BTK-POLYGAT-LS ASSAY; details: not given
Sequence (Q06187 whole entry): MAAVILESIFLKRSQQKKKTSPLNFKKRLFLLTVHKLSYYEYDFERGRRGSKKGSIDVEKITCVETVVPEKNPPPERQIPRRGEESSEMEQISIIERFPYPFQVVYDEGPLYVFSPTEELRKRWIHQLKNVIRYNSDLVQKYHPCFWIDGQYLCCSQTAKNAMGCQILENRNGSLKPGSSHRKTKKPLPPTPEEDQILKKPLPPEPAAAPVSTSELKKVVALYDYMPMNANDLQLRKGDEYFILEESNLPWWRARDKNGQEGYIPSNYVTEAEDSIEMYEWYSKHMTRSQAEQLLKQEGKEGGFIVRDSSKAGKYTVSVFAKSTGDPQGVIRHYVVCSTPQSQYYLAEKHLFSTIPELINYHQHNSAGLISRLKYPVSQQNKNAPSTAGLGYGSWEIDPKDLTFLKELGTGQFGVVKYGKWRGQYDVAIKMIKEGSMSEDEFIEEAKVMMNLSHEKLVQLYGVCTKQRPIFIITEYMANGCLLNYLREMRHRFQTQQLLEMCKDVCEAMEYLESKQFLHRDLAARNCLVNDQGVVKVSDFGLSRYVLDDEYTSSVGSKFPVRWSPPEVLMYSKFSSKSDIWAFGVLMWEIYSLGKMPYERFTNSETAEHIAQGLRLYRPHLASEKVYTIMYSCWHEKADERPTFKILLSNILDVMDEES

Structure (SMILES) | IC50 [µM]
O=C(NC[C@H]1CCCC[C@@H]1O)Nc1cccc(C2CCCN(c3ncnc4[nH]ccc34)C2)c1 (stereo partly shown) [compound 199] | 1 to 10
Cc1cc(NC(=O)Nc2cccc(C3CCCN(c4ncnc5[nH]ccc45)C3)c2)no1 (stereo not shown) [Cmpd 57, 1-(3-(1-(7H-pyrrolo[2,3-d]pyrimidin-4-yl)piperidin-3-yl)phenyl)-3-(5-methylisoxazol-3-yl)urea] | 1 to 10
O=c1nc(Nc2cccc(C3CCCN(c4ncnc5[nH]ccc45)C3)c2)[nH]c2c1CCCC2 (stereo not shown) [compound 120, 2-(3-(1-(7H-pyrrolo[2,3-d]pyrimidin-4-yl)piperidin-3-yl)phenylamino)-5,6,7,8-tetrahydroquinazolin-4(1H)-one] | 1 to 10
O=C1C(Nc2ccccc2)CCN1[C@@H]1CCCN(c2ncnc3[nH]ccc23)C1 (stereo partly drawn) [compound 270, 1-((R)-1-(7H-pyrrolo[2,3-d]pyrimidin-4-yl)piperidin-3-yl)-3-(phenylamino)pyrrolidin-2-one] | 0.1 to 0.999
O=C(COc1ccccc1)Nc1cccc(C2CCCN(c3ncnc4[nH]ccc34)C2)c1 (stereo not shown) [Cmpd 22, N-(3-(1-(7H-pyrrolo[2,3-d]pyrimidin-4-yl)piperidin-3-yl)phenyl)-2-phenoxyacetamide] | 1 to 10
O=C(Nc1cccc(C2CN(c3ncnc4[nH]ccc34)CCN2CCO)c1)Nc1c(Cl)cccc1Cl (stereo not shown) [compound 134, 1-(2,6-Dichlorophenyl)-3-(3-(1-(2-hydroxyethyl)-4-(7H-pyrrolo[2,3-d]pyrimidin-4-yl)piperazin-2-yl)phenyl)urea] | 0.1 to 0.999
N#C/N=C(\Nc1cccc(C2CCCN(c3ncnc4[nH]ccc34)C2)c1)Nc1c(Cl)cccc1Cl (stereo not shown) [compound 269] | 0.1 to 0.999
Nc1ncnc(N2CCCC(c3nc(NC(=O)Nc4c(F)cc(F)cc4N4CCCC4)cs3)C2)c1Cl (stereo not shown) [compound 114, 1-(2-(1-(6-amino-5-chloropyrimidin-4-yl)piperidin-3-yl)thiazol-4-yl)-3-(2,4-difluoro-6-(pyrrolidin-1-yl)phenyl)urea] | 0.1 to 0.999
N#C/N=C(\Nc1cccc(C2CCCN(c3ncnc4[nH]ccc34)C2)c1)NC1CCCCC1 (stereo not shown) [Cmpd 75] | 1 to 10
Nc1ncnc(N2CC[C@@H](C(F)(F)F)[C@H](N3CCC[C@H](Nc4cc(Cl)cc(Cl)c4)C3=O)C2)c1F [compound 336, trans (3S)-1′-(6-Amino-5-fluoropyrimidin-4-yl)-3-(3,5-dichlorophenylamino)-4′-(trifluoromethyl)-1,3′-bipiperidin-2-one] | 1 to 10
Cc1cc(NC(=O)Nc2cccc(C3CCCN(c4ncnc5[nH]ccc45)C3)c2)on1 (stereo not shown) [Cmpd 66, 1-(3-(1-(7H-pyrrolo[2,3-d]pyrimidin-4-yl)piperidin-3-yl)phenyl)-3-(3-methylisoxazol-5-yl)urea] | 1 to 10
CC(C)CNC(=O)Nc1cccc(C2CCCN(c3ncnc4[nH]ccc34)C2)c1 (stereo not shown) [compound 212] | 1 to 10
Nc1ncnc(N2C[C@@H](O)C[C@@H](N3CCCC(Nc4cc(F)cc(Cl)c4)C3=O)C2)c1F (stereo partly drawn) [compound 284, (3′R, 5′S)-1′-(6-Amino-5-fluoropyrimidin-4-yl)-3-(3-chloro-5-fluorophenylamino)-5′-hydroxy-1,3′-bipiperidin-2-one] | 0.1 to 0.999
CC(C)(C)CNC(=O)Nc1cccc(C2CCCN(c3ncnc4[nH]ccc34)C2)c1 (stereo not shown) [compound 196] | 1 to 10
O=C(Nc1cccc(C2CCCN(c3ncnc4[nH]ccc34)C2)c1)[C@@H](O)c1ccccc1 (stereo partly drawn) [Cmpd 18, (2S)—N-(3-(1-(7H-pyrrolo[2,3-d]pyrimidin-4-yl)piperidin-3-yl)phenyl)-2-hydroxy-2-phenylacetamide] | 1 to 10
CC(C)CCNC(=O)Nc1cccc(C2CCCN(c3ncnc4[nH]ccc34)C2)c1 (stereo not shown) [compound 186] | 1 to 10
Nc1ncnc(N2CCCC(c3cccc(NC(=O)Nc4ccccc4)c3)C2)c1Cl (stereo not shown) [Cmpd 99, 1-(3-(1-(6-Amino-5-chloropyrimidin-4-yl)piperidin-3-yl)phenyl)-3-phenylurea] | 1 to 10
O=C(Nc1cccc(Cl)c1)Nc1cccc(C2CCCN(c3ncnc4[nH]ccc34)C2)c1 (stereo not shown) [Cmpd 26, 1-(3-(1-(7H-pyrrolo[2,3-d]pyrimidin-4-yl)piperidin-3-yl)phenyl)-3-(3-chlorophenyl)urea] | 1 to 10

same assay, conditions: read-out: IC50 (10 uM ATP); 10 uM ATP; in vitro Btk kinase assay, Example 41

Structure (SMILES) | IC50 [µM]
CN/C(=N/C#N)Nc1cccc(C2CCCN(c3ncnc4[nH]ccc34)C2)c1 (stereo not shown) [Cmpd 77, (E)-1-(3-(1-(7H-pyrrolo[2,3-d]pyrimidin-4-yl)piperidin-3-yl)phenyl)-2-cyano-3-methylguanidine] | > 10
Nc1ncnc(N2CCOCC(N3CCCC(Nc4cc(F)cc(Cl)c4)C3=O)C2)c1F (stereo not shown) [compound 345, 1-(4-(6-Amino-5-fluoropyrimidin-4-yl)-1,4-oxazepan-6-yl)-3-(3-chloro-5-fluorophenylamino)piperidin-2-one] | < 0.1
O=C(Nc1cccc(C2CCCN(c3ncnc4[nH]ccc34)C2)c1)Nc1c(F)cccc1N1CCCC1 (stereo not shown) [compound 146] | < 0.1
CC(C)c1cccc(C(C)C)c1NC(=O)Nc1cccc(C2CCCN(c3ncnc4[nH]ccc34)C2)c1 (stereo not shown) [compound 154] | < 0.1
O=C(Nc1cccc(C2CCCN(c3ncnc4[nH]ccc34)C2)c1)Nc1c(Cl)cccc1N1CCCC1 (stereo not shown) [Cmpd 50, 1-(3-(1-(7H-pyrrolo[2,3-d]pyrimidin-4-yl)piperidin-3-yl)phenyl)-3-(2-chloro-6-(pyrrolidin-1-yl)phenyl)urea] | < 0.1
Nc1ncnc(N2CC[C@H](O)[C@@H](N3CCC[C@@H](Nc4cc(Cl)cc(Cl)c4)C3=O)C2)c1F [compound 326, trans (3R)-1′-(6-Amino-5-fluoropyrimidin-4-yl)-3-(3,5-dichlorophenylamino)-4′-hydroxy-1,3′-bipiperidin-2-one] | < 0.1
O=C(Nc1cccc(C2CCCN(c3ncnc4[nH]ccc34)C2)c1)Nc1ccncc1Cl (stereo not shown) [compound 222] | > 10
Nc1ncnc(N2CCC[C@@H](N3CCCC(Nc4cc(C(F)(F)F)cc(C(F)(F)F)c4)C3=O)C2)c1F (stereo partly drawn) [compound 310, (3′R)-1′-(6-Amino-5-fluoropyrimidin-4-yl)-3-(3,5-bis(trifluoromethyl)phenylamino)-1,3′-bipiperidin-2-one] | < 0.1
O=C(Nc1cccc(C2CCCN(c3ncnc4[nH]ccc34)C2)c1)NC1CCNC1 (stereo not shown) [compound 239] | > 10
O=C(Nc1ccccc1)Nc1ccc(C2CCCN(c3ncnc4[nH]ccc34)C2)cc1 (stereo not shown) [compound 268] | > 10
CN1CCC(CNC(=O)Nc2cccc(C3CCCN(c4ncnc5[nH]ccc45)C3)c2)CC1 (stereo not shown) [compound 245] | > 10
O=C(Nc1ccccc1)Nc1cccc(C2CCCN(c3ncnc4[nH]cnc34)C2)c1 (stereo not shown) [compound 174] | 0.1 to 0.999
COc1ccccc1C(=O)Nc1cccc(C2CCCN(c3ncnc4[nH]ccc34)C2)c1 (stereo not shown) [Cmpd 6, N-(3-(1-(7H-pyrrolo[2,3-d]pyrimidin-4-yl)piperidin-3-yl)phenyl)-2-methoxybenzamide] | > 10
Nc1ncnc(N2CCC[C@@H](N3CCCC(NC4CCC(F)(F)CC4)C3=O)C2)c1F (stereo partly drawn) [compound 294, (3′R)-1′-(6-Amino-5-fluoropyrimidin-4-yl)-3-(4,4-difluorocyclohexylamino)-1,3′-bipiperidin-2-one] | > 10
CC(C)(C)Nc1c(Nc2cccc(C3CCCN(c4ncnc5[nH]ccc45)C3)c2)c(=O)c1=O (stereo not shown) [Cmpd 73, 3-(3-(1-(7H-pyrrolo[2,3-d]pyrimidin-4-yl)piperidin-3-yl)phenylamino)-4-(tert-butylamino)cyclobut-3-ene-1,2-dione] | > 10
O=S(=O)(Nc1cccc(C2CCCN(c3ncnc4[nH]ccc34)C2)c1)c1ccccc1 (stereo not shown) [Cmpd 68, N-(3-(1-(7H-pyrrolo[2,3-d]pyrimidin-4-yl)piperidin-3-yl)phenyl)benzenesulfonamide] | > 10
Nc1ncnc(N2CCC[C@@H](N3CCCC(Nc4cc(Cl)c(F)c(Cl)c4)C3=O)C2)c1F (stereo partly drawn) [compound 309, (3′R)-1′-(6-Amino-5-fluoropyrimidin-4-yl)-3-(3,5-dichloro-4-fluorophenylamino)-1,3′-bipiperidin-2-one] | < 0.1
Nc1ncnc(N2C[C@@H](F)C[C@@H](N3CCCC(Nc4cc(F)cc(Cl)c4)C3=O)C2)c1F (stereo partly drawn) [compound 279, (3′R, 5′S)-1′-(6-Amino-5-fluoropyrimidin-4-yl)-3-(3-chloro-5-fluorophenylamino)-5′-fluoro-1,3′-bipiperidin-2-one] | < 0.1
CCOC(=O)c1ccccc1NC1CCCN([C@@H]2CCCN(c3ncnc(N)c3F)C2)C1=O (stereo partly drawn) [compound 295, Ethyl-2-((3′R)-1′-(6-amino-5-fluoropyrimidin-4-yl)-2-oxo-1,3′-bipiperidin-3-ylamino) benzoate] | > 10
CC(C)(C)N/C(=N/C#N)Nc1cccc(C2CCCN(c3ncnc4[nH]ccc34)C2)c1 (stereo not shown) [Cmpd 78, (Z)-1-(3-(1-(7H-pyrrolo[2,3-d]pyrimidin-4-yl)piperidin-3-yl)phenyl)-3-tert-butyl-2-cyanoguanidine] | > 10
CCOC(=O)CCc1c(N)ncnc1N1CCCC(c2cccc(NC(=O)Nc3ccccc3)c2)C1 (stereo not shown) [compound 253] | > 10
O=C(Nc1cccc(C2CCCN(c3ncnc4[nH]ccc34)C2)c1)Nc1ccccc1N1CC[C@@H](O)C1 (stereo partly shown) [compound 149] | < 0.1
CC(C)(C#N)c1ccccc1NC(=O)Nc1cccc(C2CCCN(c3ncnc4[nH]ccc34)C2)c1 (stereo not shown) [compound 260] | > 10
O=C(Nc1cc(C2CCCN(c3ncnc4[nH]ccc34)C2)cc(C(F)(F)F)c1)c1ccccc1 (stereo not shown) [Cmpd 84, N-(3-(1-(7H-pyrrolo[2,3-d]pyrimidin-4-yl)piperidin-3-yl)-5-(trifluoromethyl)phenyl)benzamide] | > 10
O=C(Nc1cccc(C2CCCN(c3ncnc4[nH]ccc34)C2)c1)Nc1ccccc1N1CC[C@H](O)C1 (stereo partly shown) [compound 155] | < 0.1
Nc1cc(N2CCC[C@@H](N3CCCC(Nc4cc(F)cc(Cl)c4)C3=O)C2)ncn1 (stereo partly shown) [compound 361] | < 0.1
O=C(Nc1cccc(C2CCCN(c3ncnc4[nH]ccc34)C2)c1)Nc1ccccc1N1C[C@H](O)[C@@H](O)C1 (stereo partly shown) [compound 150] | < 0.1
O=C(Nc1cccc(C2CCCN(c3ncnc4[nH]ccc34)C2)c1)NC1CCCNC1 (stereo not shown) [compound 232] | > 10
